{
  "source": "paper PMC6781459",
  "about": "“The study of antimicrobial, anti-cancer, anti-inflammatory and α-glucosidase inhibitory activities of Nigronapthaphenyl, isolated from an extract of Nigrospora sphaerica” (Mycology, 2019)",
  "biological_target": "α-glucosidase",
  "assay": "α-glucosidase inhibition assay (no method or enzyme source described)",
  "type": "biochemical",
  "data": [
    {"smiles": "COc1cc(OC)c2cc(C(=O)c3ccccc3)ccc2c1OC", "note": "[Nigronapthaphenyl]", "values": [
      {"measurement": "IC50", "value": "6.9 ± 0.5", "unit": "µM"}
    ]}
  ]
}
